US20090220562A1, “Osteogenic and anti-adipogenic oxysterols” (priority 2005, published 2009)

What was measured:
Assay type in all cases: cell-based, mouse
marrow stromal cells = assay: Osteogenic differentiation of marrow stromal cells (marker not specified: ALP activity, osteocalcin mRNA, mineral formation); settings: pretreatment and co-treatment; 20S 5-15 μM
Experimental: The purpose of the study was to identify other osteogenic and anti-adipogenic oxysterols based on the chemical structure of previously identified oxysterols. The ability of such candidate oxysterol molecules to induce the formation of osteoblastic cells in cultures of marrow stromal cells (which are progenitors of osteoblastic cells that make bone) were tested. In order to assess osteogenic differentiation of cells, one or more markers of osteogenic differentiation were measured in untreated cells and cells treated with the test oxysterols. These markers included: alkaline phosphatase activity, osteocalcin mRNA expression and mineral formation in cultures of marrow stromal cells. Activation of either one or more than one marker by a single or combination oxysterols is indicative of their osteogenic property.

osteocalcin mRNA = assay: Northern blotting for osteocalcin mRNA in M2-10B4 cells; settings: for induction of osteocalcin gene expression by individual oxysterols: 0.5 to less than 10 μM, as many as 14 days (data not shown)
Experimental: RNA isolation and Northern blot analysis—Following treatment of cells under appropriate experimental conditions, total RNA was isolated using the RNA isolation kit from Stratagene (La Jolla, Calif., U.S.A.). Total RNA ([…]) was run on a 1% agarose/formaldehyde gel and transferred to Duralon-UV membranes (Strategene, CA, U.S.A.) and cross-linked with UV light. The membranes were hybridized overnight at 60 degree C. with ^32P-labeled mouse osteocalcin cDNA probe, mouse lipoprotein lipase (LPL), mouse adipocyte protein 2 (aP^2) PCR-generated probes, human 28S or 18S rRNA probes obtained from Geneka Biotechnology (Montreal, Quebec, Canada) and Maxim Biotech (San Francisco, Calif., U.S.A.), respectively. The PCR products were generated using primer sets synthesized by Invitrogen (Carlsbad, Calif., U.S.A.) with the following specifications: mouse aP2 gene (accession no. M13261); sense (75-95) 5′-[…]-3′, antisense (362-383) 5′-[…]-3′, generating a PCR product of 309 base pairs. Mouse LPL (accession no. XM—134193); sense (1038-1058) 5′-[…]-3′, antisense (1816-1836) 5′-[…]-3′, generating a PCR product of 799 base pairs. The PCR products were gel-purified and sequenced by the UCLA sequencing core, showing the highest similarity to their respective GenBank entries. Following hybridization, the blots were washed twice at room temperature with 2×SSC+0.1% SDS, and then twice at 60 degree C. with 0.5×SSC+0.1% SDS, and exposed to X-ray film. The extent of gene induction was determined by densitometry.
After 4 and 8 days, total RNA from duplicate samples was isolated and analyzed for osteocalcin (Osc) and 28S rRNA expression by Northern blotting as described. FIG. 3E is a radiogram of Northern blotting for osteocalcin mRNA in M2 cells exposed to a control or combination of oxysterols for 4 or 8 days. FIG. 3F is a bar graph depicting the relative demsometric units of osteocalcin mRNA in M2 cells exposed to a control or combination of oxysterols for 4 -or 8 days. Data from densitometric analysis of the Northern blot is shown in (F) as the average of duplicate samples, normalized to 28S rRNA.
Next, a combination of 22R and 20S oxysterols (RS, 2.5 μM each) were added in the presence or absence of SC as indicated. After 3 days, ALP activity was measured as described earlier. […] (B) M2 cells were treated as described in (A) and after 10 days matrix mineralization in cultures was quantified by a ^45Ca incorporation assay as described earlier. […] (C) M2 cells were pretreated with 20 μM SC for 4 hours, followed by the addition of RS in the presence or absence of SC as described above. After 8 days, total RNA was isolated and analyzed for osteocalcin (Osc) and […] expression by Northern blotting as previously described. Data from densitometric analysis of the Northern blot is shown in (D) as the average of duplicate samples, normalized to 18S rRNA. (E) M2 cells at confluence were pretreated for 2 hours with control vehicle (C), or PLA2 inhibitors ACA (25 μM) and AACOCF3 (AAC, 20 μM), in osteogenic medium. Next, a combination of 22R and 20S oxysterols (RS, 2.5 μM) was added in the presence or absence of the inhibitors as indicated. After 3 days, ALP activity was measured as previously described. […] (F) M2 cells were treated as described in (E). After 10 days, matrix mineralization in cultures was quantified using a ^45Ca incorporation assay as previously described. Results from a representative of three experiments are shown, reported as the mean of quadruplicate determinations ±SD, normalized to protein concentration (p<0.01 for RS vs. RS+ACA and RS+AAC).
ALP activity was measured after 2 days, as described. […] (B) M2 cells were treated as described in (A). After 10 days, matrix mineralization in cultures was quantified using a ^45Ca incorporation assay as described. […] (C) M2 cells were treated under similar conditions as those described above. […]

[1] = test system: lipoprotein lipase (LPL) and adipocyte P2 gene (aP2); assay: Northern blotting for adipogenic genes in troglitazone-treated M2 cells; settings: 10 μM Tro with 10 μM 20S, 10 days
Experimental: RNA isolation and Northern blot analysis—Following treatment of cells under appropriate experimental conditions, total RNA was isolated using the RNA isolation kit from Stratagene (La Jolla, Calif., U.S.A.). Total RNA ([…]) was run on a 1% agarose/formaldehyde gel and transferred to Duralon-UV membranes (Strategene, CA, U.S.A.) and cross-linked with UV light. The membranes were hybridized overnight at 60 degree C. with ^32P-labeled mouse osteocalcin cDNA probe, mouse lipoprotein lipase (LPL), mouse adipocyte protein 2 (aP^2) PCR-generated probes, human 28S or 18S rRNA probes obtained from Geneka Biotechnology (Montreal, Quebec, Canada) and Maxim Biotech (San Francisco, Calif., U.S.A.), respectively. […] The extent of gene induction was determined by densitometry.
Test 2: (A) M2 cells at confluence were treated in RPMI containing 10% FBS with control vehicle or 10 μM troglitazone (Tro) in the absence or presence of 10 μM 20S or 22S-hydroxycholesterol. After 10 days, adipocytes were visualized by oil Red O staining and quantified by light microscopy, shown in (B). […] After 10 days, total RNA was isolated and analyzed for lipoprotein lipase (LPL), adipocyte P2 gene (aP2) or 18S rRNA expression by Northern blotting as described (Ref). […]

SMILES | enhancement of 20S-hydroxycholesterol's induction of ALP activity, Runx2 DNA binding and protein expression, osteocalcin mRNA expression and mineralization (marrow stromal cells) | induction of osteocalcin gene expression by individual oxysterols (osteocalcin mRNA) | expression of adipocyte P2 gene (aP2) [1] | expression of lipoprotein lipase (LPL) [1] | osteocalcin mRNA expression (osteocalcin mRNA; doses of 5-15 μM)
CC(C)CC[C@H](O)[C@@H](C)[C@H]1CC[C@H]2[C@@H]3CC=C4C[C@@H](O)CC[C@]4(C)[C@H]3CC[C@]12C [22S-hydroxycholesterol] | greatly enhanced | unable to induce |  |  | 
CC(C)CC[C@@H](O)[C@@H](C)[C@H]1CC[C@H]2[C@@H]3CC=C4C[C@@H](O)CC[C@]4(C)[C@H]3CC[C@]12C [22R-hydroxycholesterol] | greatly enhanced | unable to induce |  |  | 
CC(C)CCC[C@](C)(O)[C@H]1CC[C@H]2[C@@H]3CC=C4C[C@@H](O)CC[C@]4(C)[C@H]3CC[C@@]21C [20S-hydroxycholesterol] |  | unable to induce | inhibition of the expression | inhibition of the expression | induction
